Data reported in publication PMC9325861, “Mouse precision-cut liver slices as an ex vivo model to study drug-induced cholestasis” (Archives of Toxicology, 2022).
Where “and” joins values, the source holds several entries; their conditions need not be identical. Identical values can stand only once. Counter-ions that a name gives are not always drawn.

What was measured:
Hsp47 (Serpinh1) = experiment: qRT-PCR gene expression in mouse PCLS: Hsp47; assay type: cell-based; details: 48 h, in the presence of BAs, highest concentration (30 µM CPZ)
Description: In short, freshly prepared PCLS were transferred to 12-well plates (Greiner bio-one GmbH, Austria), one slice per well. Each well was filled with 1.3 mL pre-heated (37 ℃) and oxygenated (80%) Williams Medium E (1X, glutaMAX-1), which had been supplemented with 25 mM D-glucose monohydrate and 50 μg/ml Gentamicin (denoted as WME GG). […] The DMSO concentration used was below 0.5% in the incubation medium, equivalent to DMSO concentrations in solutions prepared by dilution of BA stock solutions with WME GG.
Three PCLS incubated under a given condition were pooled in a 1.5-mL Rnase-free test tube, snap-frozen in liquid nitrogen, and stored at – 80 °C until analysis. RNA was isolated using a FavorPrep Tissue Total RNA Mini Kit (Favorgen, Vienna, Austria). Subsequently, the RNA yield was quantified using a NanoDrop One instrument (Thermo Fisher Scientific, Massachusetts, USA). Isolated RNA was reverse-transcribed to cDNA using a cDNA synthesis kit (Reverse Transcription System, Promega, Benelux B.V.). […]
qRT-PCR was used to determine the relative mRNA expression levels for the mouse target genes: Bsep (Abcb11), Mrp2 (Abcc2), Mrp3 (Abcc3), Mrp4 (Abcc4), Ntcp (Slc10a1), Fxr (Nr1h4), Cyp7a1 (Cyp7a1), Collagen type 1a1 (Col1a1), Hsp47 (Serpinh1). […] Samples were measured in duplicates. […] Results are expressed as log2(fold change).

human PCLS = tested on: human PCLS; set-up: method as in Vatakuti et al. [2017]; details: 30 µM CPZ, without BA mixture, ref Vatakuti et al. [2017]; cited from earlier work
mouse PCLS = experiment: LC–MS/MS quantification of intracellular BAs in mouse PCLS; assay type: cell-based; details: 48 h
Description: In short, freshly prepared PCLS were transferred to 12-well plates (Greiner bio-one GmbH, Austria), one slice per well. […] The composition of the human-like BA mixture was based on serum concentrations in mice and humans, measured by […]. […] A Shimadzu Nexera X2 HPLC system with binary pumps was interfaced to a Thermo Scientific TSQ Quantum ultra-triple quadrupole mass spectrometer. The BA analysis was performed by liquid chromatography-tandem mass spectrometry (LC-MS/MS). Xcalibur software version 2.0.7 by Thermo Scientific was applied in the data processing. […] Phenomenex, Utrecht, the Netherlands) reversed-phase column was used to separate the BAs. The column and autosampler temperatures were set at 55 °C and 4 °C, respectively. The injection volume was 15 μL, and the flow was set at 0.3 mL/min. […] Intracellular BA concentrations in PCLS were measured by LC-MS/MS. Sample preparation for these measurements of intracellular BAs was performed as follows. […] Hereafter, three slices for each condition were pooled in a 1.5-mL test tube, snap-frozen in liquid nitrogen and stored at -80 °C until analysis. […] Samples were subsequently centrifuged for 15 min at 15 °C and 13,000 rpm. The supernatant was collected in a new tube, and the samples were concentrated using a Concentrator plus centrifuge (Eppendorf, Germany). […] The concentrations of CA, CDCA, DCA, LCA, UDCA, HDCA, […] and GCA were determined with MRM-based LC-MS as described above.

MRP2 = tested on: MRP2; set-up: method as in Pedersen et al. [2008]; Morgan et al. [2013]; details: ref Pedersen et al. [2008]; Morgan et al. [2013]; cited from earlier work
[1] = tested on: primary human hepatocytes; set-up: method as in Ogimura et al. [2017]; details: in the presence of a BA mixture, ref Ogimura et al. [2017], read-out: Concentration with 50% toxicity; cited from earlier work
rat PCLS = tested on: rat PCLS; set-up: method as in Starokozhko et al. [2017a]; details: control 156.5, ref Starokozhko et al. [2017a]; cited from earlier work
mouse Bsep protein = tested on: mouse Bsep protein; set-up: method as in Noe et al. [2001]; details: ref Noe et al. [2001]; cited from earlier work
[2] = in the absence of the BA mixture
[3] = with humanized BA mixture, CPZ 15 µM, CSA 1 µM, GB 25 µM
[4] = with humanized BA mixture, CPZ 30 µM, CSA 6 µM, GB 65 µM
[5] = with humanized BA mixture, vs control
[6] = without BA mixture, CPZ 15 µM, CSA 1 µM, GB 25 µM
[7] = without BA mixture, CPZ 30 µM, CSA 6 µM, GB 65 µM

## CN(C)CCCN1c2ccccc2Sc2ccc(Cl)cc21 [CPZ, Chlorpromazine hydrochloride]
Hsp47 (Serpinh1)
  Hsp47 gene expression: significantly increased
Human PCLS
  Decrease in ATP content: 40%
Mouse PCLS; [2]
  Effect on total intracellular BA concentration: increased the total intracellular concentration of BAs
Mouse PCLS; [3]
  Intracellular CA concentration: 259.9±32.0 pmol/mg protein
  Intracellular CDCA concentration: 20.9±1.8 pmol/mg protein
  Intracellular DCA concentration: 87.7±14.0 pmol/mg protein
  Intracellular GCA concentration: 34.7±16.0 pmol/mg protein
  Intracellular HDCA concentration: 4.0±2.5 pmol/mg protein
  Intracellular LCA concentration: 3.4±1.3 pmol/mg protein
  Intracellular TCA concentration: 244.1±42.8 pmol/mg protein
  Intracellular TCDCA concentration: 10.1±0.2 pmol/mg protein
  Intracellular TDCA concentration: 14.1±0.8 pmol/mg protein
  Intracellular THDCA concentration: 9.4±1.4 pmol/mg protein
  Intracellular UDCA concentration: 34.2±4.0 pmol/mg protein
  Total intracellular concentration of 11 BAs: 722.5±95.4 pmol/mg protein
Mouse PCLS; [4]
  Intracellular CA concentration: 314.1±29.7 pmol/mg protein
  Intracellular CDCA concentration: 41.3±6.4 pmol/mg protein
  Intracellular DCA concentration: 297 pmol/mg protein and 297.9±25.1 pmol/mg protein
  Intracellular GCA concentration: 26.1±3.5 pmol/mg protein
  Intracellular HDCA concentration: 13.6±3.9 pmol/mg protein
  Intracellular LCA concentration: 14.9±8.6 pmol/mg protein
  Intracellular TCA concentration: 351.2±67.0 pmol/mg protein
  Intracellular TCDCA concentration: 18.2±5.3 pmol/mg protein
  Intracellular TDCA concentration: 44.3±5.1 pmol/mg protein
  Intracellular THDCA concentration: 9.0±3.0 pmol/mg protein
  Intracellular UDCA concentration: 46.3±3.0 pmol/mg protein
Mouse PCLS; [5]
  Effect on total intracellular BA concentration: intracellular accumulation of BAs
Mouse PCLS; [6]
  Intracellular CA concentration: 0.3±0.0 pmol/mg protein
  Intracellular CDCA concentration: 0.2±0.2 pmol/mg protein
  Intracellular DCA concentration: 0.1±0.1 pmol/mg protein
  Intracellular GCA concentration: 0.0±0.0 pmol/mg protein
  Intracellular HDCA concentration: 0.0±0.0 pmol/mg protein
  Intracellular LCA concentration: 0.2±0.1 pmol/mg protein
  Intracellular TCA concentration: 0.8±0.1 pmol/mg protein
  Intracellular TCDCA concentration: 14.4±1.7 pmol/mg protein
  Intracellular TDCA concentration: 0.1±0.1 pmol/mg protein
  Intracellular THDCA concentration: 2.4±0.3 pmol/mg protein
  Intracellular UDCA concentration: 0.0±0.0 pmol/mg protein
  Total intracellular concentration of 11 BAs: 18.7±0.0 pmol/mg protein
Mouse PCLS; [7]
  Intracellular CA concentration: 0.4±0.1 pmol/mg protein
  Intracellular CDCA concentration: 0.4±0.2 pmol/mg protein
  Intracellular DCA concentration: 0.1±0.1 pmol/mg protein
  Intracellular GCA concentration: 0.0±0.0 pmol/mg protein
  Intracellular HDCA concentration: 0.0±0.0 pmol/mg protein
  Intracellular LCA concentration: 0.3±0.2 pmol/mg protein
  Intracellular TCA concentration: 1.2±0.1 pmol/mg protein
  Intracellular TCDCA concentration: 25.0±2.2 pmol/mg protein
  Intracellular TDCA concentration: 0.1±0.1 pmol/mg protein
  Intracellular THDCA concentration: 5.2±0.7 pmol/mg protein
  Intracellular UDCA concentration: 0.0±0.0 pmol/mg protein
  Total intracellular concentration of 11 BAs: 32.7±0.0 pmol/mg protein

## COc1ccc(Cl)cc1C(=O)NCCc1ccc(S(=O)(=O)NC(=O)NC2CCCCC2)cc1 [GB, Glibenclamide]
MRP2
  Effect on MRP2 activity on a protein level: stimulate MRP2 activity
[1]
  IC50: 103 µM
Rat PCLS
  Intracellular GCA concentration after drug incubation: 364.3 pmol/mg protein
Mouse Bsep protein
  Inhibition of the mouse Bsep protein: competitively inhibit
Mouse PCLS; [2]
  Effect on total intracellular BA concentration: decrease in intracellular concentrations of BAs
Mouse PCLS; [3]
  Intracellular CA concentration: 103.6±10.3 pmol/mg protein
  Intracellular CDCA concentration: 14.7±1.6 pmol/mg protein
  Intracellular DCA concentration: 50.7±7.4 pmol/mg protein
  Intracellular GCA concentration: 13.4±2.4 pmol/mg protein
  Intracellular HDCA concentration: 9.4±2.7 pmol/mg protein
  Intracellular LCA concentration: 0.8±0.5 pmol/mg protein
  Intracellular TCA concentration: 103.8±8.6 pmol/mg protein
  Intracellular TCDCA concentration: 7.7±0.5 pmol/mg protein
  Intracellular TDCA concentration: 7.6±0.8 pmol/mg protein
  Intracellular THDCA concentration: 8.3±1.4 pmol/mg protein
  Intracellular UDCA concentration: 19.1±1.7 pmol/mg protein
  Total intracellular concentration of 11 BAs: 339.2±20.7 pmol/mg protein
Mouse PCLS; [4]
  Intracellular CA concentration: 132.3±11.3 pmol/mg protein
  Intracellular CDCA concentration: 14.8±1.3 pmol/mg protein
  Intracellular DCA concentration: 121.3±8.6 pmol/mg protein
  Intracellular GCA concentration: 22.4 pmol/mg protein and 22.4±6.1 pmol/mg protein
  Intracellular HDCA concentration: 25.7±1.5 pmol/mg protein
  Intracellular LCA concentration: 0.9±0.3 pmol/mg protein
  Intracellular TCA concentration: 135.2±19.9 pmol/mg protein
  Intracellular TCDCA concentration: 8.6±1.2 pmol/mg protein
  Intracellular TDCA concentration: 14.6±0.9 pmol/mg protein
  Intracellular THDCA concentration: 11.4±2.6 pmol/mg protein
  Intracellular UDCA concentration: 24.5±3.9 pmol/mg protein
Mouse PCLS; [5]
  Effect on total intracellular BA concentration: reduced or did not affect
Mouse PCLS; [6]
  Intracellular CA concentration: 0.5±0.0 pmol/mg protein
  Intracellular CDCA concentration: 0.2±0.1 pmol/mg protein
  Intracellular DCA concentration: 0.6±0.5 pmol/mg protein
  Intracellular GCA concentration: 0.0±0.0 pmol/mg protein
  Intracellular HDCA concentration: 0.0±0.0 pmol/mg protein
  Intracellular LCA concentration: 0.1±0.1 pmol/mg protein
  Intracellular TCA concentration: 0.7±0.2 pmol/mg protein
  Intracellular TCDCA concentration: 2.3±0.5 pmol/mg protein
  Intracellular TDCA concentration: 0.0±0.0 pmol/mg protein
  Intracellular THDCA concentration: 1.8±0.3 pmol/mg protein
  Intracellular UDCA concentration: 0.0±0.0 pmol/mg protein
  Total intracellular concentration of 11 BAs: 6.3±0.0 pmol/mg protein
Mouse PCLS; [7]
  Intracellular CA concentration: 0.5±0.2 pmol/mg protein
  Intracellular CDCA concentration: 0.4±0.3 pmol/mg protein
  Intracellular DCA concentration: 0.1±0.1 pmol/mg protein
  Intracellular GCA concentration: 0.0±0.0 pmol/mg protein
  Intracellular HDCA concentration: 0.0±0.0 pmol/mg protein
  Intracellular LCA concentration: 0.2±0.1 pmol/mg protein
  Intracellular TCA concentration: 0.3±0.1 pmol/mg protein
  Intracellular TCDCA concentration: 2.0±0.4 pmol/mg protein
  Intracellular TDCA concentration: 0.0±0.0 pmol/mg protein
  Intracellular THDCA concentration: 0.5±0.1 pmol/mg protein
  Intracellular UDCA concentration: 0.0±0.0 pmol/mg protein
  Total intracellular concentration of 11 BAs: 4.2±0.0 pmol/mg protein
